Source: patent publication US7307063B2, “Melanocortin metallopeptides for treatment of sexual dysfunction” (Palatin Technologies, Inc., priority 2001, dated 2007)
Non-standard residues stand in square brackets, D forms with d. No end group written: not given here. *: point of attachment. Heptanoyl = CCCCCCC(=O)*; Nle = CCCC[C@H](N)C(=O)O

Experiments:
MC1-R = target: T1, MC1-R (Mus musculus, UniProt Q01727); test: Competitive binding assay: inhibition of 125I-NDP-α-MSH binding to membranes from B16-F10 mouse melanoma cells; conditions: Table 6, mean of triplicate
T1 construct: MC1-R membranes were isolated from B16—F10 mouse melanoma cells; endogenous in cells; host or cells: B16-F10 mouse melanoma cells
T1 sequence (Q01727 whole entry): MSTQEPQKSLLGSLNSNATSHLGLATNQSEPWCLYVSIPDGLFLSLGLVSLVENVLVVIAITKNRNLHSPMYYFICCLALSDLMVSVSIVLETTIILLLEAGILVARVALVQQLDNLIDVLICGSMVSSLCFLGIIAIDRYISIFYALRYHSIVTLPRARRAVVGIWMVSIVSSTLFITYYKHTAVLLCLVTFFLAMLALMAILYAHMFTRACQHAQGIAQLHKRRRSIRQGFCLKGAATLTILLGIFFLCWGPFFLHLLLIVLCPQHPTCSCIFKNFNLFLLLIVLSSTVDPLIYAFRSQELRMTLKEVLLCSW
Method: (§1) Rhenium-complexed metallopeptides of the formulas given in Table 1 were prepared, with the metallopeptides complexed with rhenium using the rhenium transfer agent ReOCl3(PPh3)2 in the presence of 1,8-Diazabicyclo[5,4,0] undec-7-ene as a base, as disclosed in International Application PCT/US00/16396, filed Jun. 14, 2000, Melanocortin Metallopeptide Constructs, Combinatorial Libraries and Applications, incorporated by reference herein. Affinities of compounds were measured using membranes from HEK-293 cells containing cloned human melanocortin receptor subtypes 3, 4 and 5. MC1-R membranes were isolated from B16—F10 mouse melanoma cells. The assay tube also contained a chosen concentration of the test peptide of this invention, complexed to a rhenium metal ion as indicated, for determining its efficacy in inhibiting the binding of ^125I-NDP-α-MSH to its receptor. Non-specific binding was measured by complete inhibition of binding of ^125I-NDP-α-MSH in the assay with the presence of 1 μM α-MSH. 100% specific binding was defined as the difference in radioactivity (cpm) bound to cell membranes in the absence and presence of 1 μM α-MSH. The cpm obtained in presence of test compounds were normalized with respect to 100% specific binding to determine the percent inhibition of ^125I-NDP-α-MSH binding.
(§2) Peptide sequences set forth in Table 6 were prepared using conventional synthetic means. The resulting sequences were rhenium-complexed to form metallopeptides, with the metallopeptides complexed with rhenium using the rhenium transfer agent ReOCl3(PPh3)2 in the presence of 1,8-Diazabicyclo[5,4,0] undec-7-ene as a base. Percent inhibition was determined as in Example 1 using the Re-complexed metallopeptides, using the same methods as described therein. All measures are means of triplicate determinations.

MC4-R = target: T2, MC4-R (Homo sapiens, UniProt P32245); test: Competitive binding assay: inhibition of 125I-NDP-α-MSH binding to HEK-293 membranes with cloned human receptor subtype 4; conditions: Table 6, mean of triplicate
T2 construct: expressed in transfected cells; host or cells: HEK-293
T2 sequence (P32245 whole entry): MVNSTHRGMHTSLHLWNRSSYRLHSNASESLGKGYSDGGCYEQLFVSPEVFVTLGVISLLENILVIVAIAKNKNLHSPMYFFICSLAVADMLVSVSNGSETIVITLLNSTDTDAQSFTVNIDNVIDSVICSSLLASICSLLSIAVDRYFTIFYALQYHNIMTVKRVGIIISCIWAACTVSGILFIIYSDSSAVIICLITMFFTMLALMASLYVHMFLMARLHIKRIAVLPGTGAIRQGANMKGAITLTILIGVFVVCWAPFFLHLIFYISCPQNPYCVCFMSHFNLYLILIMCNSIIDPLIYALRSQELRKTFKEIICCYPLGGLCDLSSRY
Method: as §1, §2

Substance: 2′-Naphthyl acetyl-Arg-Arg-D-Phe(3′-Cl)-Cys-Trp-NH2
- % Inhibition of Binding MC1-R (MC1-R; 1 μM): 78%
- % Inhibition of Binding hMC4-R (MC4-R; 1 μM): 90%

Substance: Heptanoyl-Ser(Bzl)-D-Phe(4′-Cl)-Arg-Nal 1′-Cys-NH2
- % Inhibition of Binding MC1-R (MC1-R; 0.1 μM): 3%
- % Inhibition of Binding hMC4-R (MC4-R; 0.1 μM): 47%

Substance: Ac-His-HyP(Bzl)-D-Phe(2′-Cl)-Arg-Nal 2′-Cys-NH2
- % Inhibition of Binding MC1-R (MC1-R; 1 μM): 84%
- % Inhibition of Binding hMC4-R (MC4-R; 1 μM): 99%

Substance: Ac-Nle-Arg-Arg-D-Nal 2′-Cys-Trp-Lys-NH2
- % Inhibition of Binding MC1-R (MC1-R; 0.1 μM): 95%
- % Inhibition of Binding hMC4-R (MC4-R; 0.1 μM): 96%

Substance: Heptanoyl-Ser(Bzl)-D-Phe(2′-Br)-Lys-Nal 2′-Cys-NH2
- % Inhibition of Binding MC1-R (MC1-R; 1 μM): 27%
- % Inhibition of Binding hMC4-R (MC4-R; 1 μM): 82%

Substance: Ser(Bzl)-D-Phe(4′-Cl)-Arg-Nal 2′-Cys-NH2
- % Inhibition of Binding MC1-R (MC1-R; 1 μM): 35%
- % Inhibition of Binding hMC4-R (MC4-R; 1 μM): 99%

Substance: 3′-Br Phenyl acetyl-Arg-Ala-D-Phe(4′-Me)-Cys-Trp-NH2
- % Inhibition of Binding MC1-R (MC1-R; 1 μM): 25%
- % Inhibition of Binding hMC4-R (MC4-R; 1 μM): 96%

Substance: 3′-Br Phenyl acetyl-Arg-Ala-D-Phe(4′-CF3)-Cys-Trp-NH2
- % Inhibition of Binding MC1-R (MC1-R; 1 μM): 22%
- % Inhibition of Binding hMC4-R (MC4-R; 1 μM): 95%

Substance: Heptanoyl-Ser(Bzl)-D-Phe(2′-Cl)-Lys-Hphe-Cys-NH2
- % Inhibition of Binding MC1-R (MC1-R; 1 μM): 12%
- % Inhibition of Binding hMC4-R (MC4-R; 1 μM): 6%

Substance: FR[dW]CK-NH2
- % Inhibition of Binding MC1-R (MC1-R; 1 μM): 21%
- % Inhibition of Binding hMC4-R (MC4-R; 1 μM): 12%

Substance: Heptanoyl-D-Hphe-D-Phe(2′-Cl)-Lys-Nal 2′-Cys-NH2
- % Inhibition of Binding MC1-R (MC1-R; 1 μM): 10%
- % Inhibition of Binding hMC4-R (MC4-R; 1 μM): 20%

Substance: Heptanoyl-Ser(Bzl)-D-Phe(4′-Cl)-Arg-Phe(3′-F)-Cys-NH2
- % Inhibition of Binding MC1-R (MC1-R; 0.1 μM): 19%
- % Inhibition of Binding hMC4-R (MC4-R; 0.1 μM): 43%

Substance: Heptanoyl-Ser(Bzl)-D-Phe(4′-Cl)-Arg-Nal 2′-Cys-NH2
- % Inhibition of Binding MC1-R (MC1-R; 0.1 μM): 16%
- % Inhibition of Binding hMC4-R (MC4-R; 0.1 μM): 94%

Substance: [dF]R[dW]CK-NH2
- % Inhibition of Binding MC1-R (MC1-R; 1 μM): 66%
- % Inhibition of Binding hMC4-R (MC4-R; 1 μM): 55%

Substance: NH2-(CH2)6-CO-Ser(Bzl)-D-Phe(4′-Cl)-Arg-D-Trp-Cys-NH2
- % Inhibition of Binding MC1-R (MC1-R; 1 μM): 48%
- % Inhibition of Binding hMC4-R (MC4-R; 1 μM): 97%

Substance: Heptanoyl-[dP][dF]RWCK-NH2
- % Inhibition of Binding MC1-R (MC1-R; 1 μM): 88%
- % Inhibition of Binding hMC4-R (MC4-R; 1 μM): 71%

Substance: 3′-Br Phenyl acetyl-Arg-Ala-D-Phe(3′-Cl)-Cys-Trp-NH2
- % Inhibition of Binding MC1-R (MC1-R; 1 μM): 23%
- % Inhibition of Binding hMC4-R (MC4-R; 1 μM): 84%

Substance: Heptanoyl-P[dF]RWCK-NH2
- % Inhibition of Binding MC1-R (MC1-R; 1 μM): 99%
- % Inhibition of Binding hMC4-R (MC4-R; 1 μM): 97%

Substance: Ser(Bzl)-D-Phe(4′-Cl)-Arg-Nal 2′-Cys-Lys-NH2
- % Inhibition of Binding MC1-R (MC1-R; 0.1 μM): 33%
- % Inhibition of Binding hMC4-R (MC4-R; 0.1 μM): 95%

Substance: Heptanoyl-Ser(Bzl)-D-Phe(4′-Cl)-Arg-Cys(Bzl)-Cys-NH2
- % Inhibition of Binding MC1-R (MC1-R; 1 μM): 30%
- % Inhibition of Binding hMC4-R (MC4-R; 1 μM): 72%

Substance: Ac-KA[dF][dC]R-NH2
- % Inhibition of Binding MC1-R (MC1-R; 1 μM): 8%
- % Inhibition of Binding hMC4-R (MC4-R; 1 μM): 0%

Substance: Ac-[Nle]AH[dF]RW[dC]K-NH2
- % Inhibition of Binding MC1-R (MC1-R; 1 μM): 87%
- % Inhibition of Binding hMC4-R (MC4-R; 1 μM): 41%

Substance: Ac-[Nle]A[dF][dC]RW-NH2
- % Inhibition of Binding MC1-R (MC1-R; 1 μM): 29%
- % Inhibition of Binding hMC4-R (MC4-R; 1 μM): 3%

Substance: Heptanoyl-Ser(Bzl)-D-Phe(4′-Cl)-Gly-Nal 2′-Cys-Lys-NH2
- % Inhibition of Binding MC1-R (MC1-R; 1 μM): 46%
- % Inhibition of Binding hMC4-R (MC4-R; 1 μM): 5%

Substance: Ph(CH2)-CO-D-Phe(2′-Cl)-Lys-Nal 2′-Cys-NH2
- % Inhibition of Binding MC1-R (MC1-R; 1 μM): 11%
- % Inhibition of Binding hMC4-R (MC4-R; 1 μM): 22%

Substance: FR[dW]CW-NH2
- % Inhibition of Binding MC1-R (MC1-R; 1 μM): 37%
- % Inhibition of Binding hMC4-R (MC4-R; 1 μM): 34%

Substance: 3′-Cl-Phenylacetyl-Arg-Arg-D-Phe(4′-CH2PO3Et3)-Cys-Trp-NH2
- % Inhibition of Binding MC1-R (MC1-R; 1 μM): 97%
- % Inhibition of Binding hMC4-R (MC4-R; 1 μM): 52%

Substance: [dF]RW[dC]K-NH2
- % Inhibition of Binding MC1-R (MC1-R; 1 μM): 23%
- % Inhibition of Binding hMC4-R (MC4-R; 1 μM): 42%

Substance: Heptanoyl-Ser(Bzl)-D-Nal 2′-Gly-Trp-Cys-Lys-NH2
- % Inhibition of Binding MC1-R (MC1-R; 1 μM): 27%
- % Inhibition of Binding hMC4-R (MC4-R; 1 μM): 0%

Substance: (N-PhEt)-D-Phe(2′-Cl)-Lys-Nal 2′-Cys-NH2
- % Inhibition of Binding MC1-R (MC1-R; 0.1 μM): 64%
- % Inhibition of Binding hMC4-R (MC4-R; 0.1 μM): 80%

Substance: 2′-Naphthyl acetyl-Arg-Arg-D-Phe(4′-Cl)-Cys-Trp-NH2
- % Inhibition of Binding MC1-R (MC1-R; 1 μM): 93%
- % Inhibition of Binding hMC4-R (MC4-R; 1 μM): 96%

Substance: Ph(CH2)2-CO-D-Phe(2′-Cl)-Lys-Nal 2′-Cys-NH2
- % Inhibition of Binding MC1-R (MC1-R; 1 μM): 0%
- % Inhibition of Binding hMC4-R (MC4-R; 1 μM): 26%

Substance: 3′-Br-Phenylacetyl-Arg-Arg-D-Phe(4′-CH2PO3Et3)-Cys-Trp-NH2
- % Inhibition of Binding MC1-R (MC1-R; 1 μM): 97%
- % Inhibition of Binding hMC4-R (MC4-R; 1 μM): 61%

Substance: Heptanoyl-Ser(Bzl)-D-Phe(4′-Cl)-Arg-Phe(2′-F)-Cys-NH2
- % Inhibition of Binding MC1-R (MC1-R; 0.1 μM): 14%
- % Inhibition of Binding hMC4-R (MC4-R; 0.1 μM): 46%

Substance: Ac-WA[dF][dC]R-NH2
- % Inhibition of Binding MC1-R (MC1-R; 1 μM): 24%
- % Inhibition of Binding hMC4-R (MC4-R; 1 μM): 0%

Substance: Heptanoyl-Ser(Bzl)-D-Phe(4′-Cl)-Arg-Phe(2′-Cl)-Cys-NH2
- % Inhibition of Binding MC1-R (MC1-R; 0.1 μM): 9%
- % Inhibition of Binding hMC4-R (MC4-R; 0.1 μM): 28%

Substance: Ac-Ser(Bzl)-D-Phe(4′-Cl)-Arg-Nal 2′-Cys-NH2
- % Inhibition of Binding MC1-R (MC1-R; 1 μM): 49%
- % Inhibition of Binding hMC4-R (MC4-R; 1 μM): 97%

Substance: Heptanoyl-Ser(Bzl)-D-Phe(4′-Cl)-Arg-Phe-Cys-NH2
- % Inhibition of Binding MC1-R (MC1-R; 0.1 μM): 11%
- % Inhibition of Binding hMC4-R (MC4-R; 0.1 μM): 32%

Substance: 1′-Naphthyl acetyl-Arg-Arg-D-Phe(3′-Cl)-Cys-Trp-NH2
- % Inhibition of Binding MC1-R (MC1-R; 1 μM): 77%
- % Inhibition of Binding hMC4-R (MC4-R; 1 μM): 92%

Substance: Ph(CH2)3-CO-D-Phe(2′-Cl)-Lys-Nal 2′-Cys-NH2
- % Inhibition of Binding MC1-R (MC1-R; 1 μM): 17%
- % Inhibition of Binding hMC4-R (MC4-R; 1 μM): 33%

Substance: 4′-Aminomethyl-Phenylacetyl Arg-Arg-Ala-D-Phe(4′-Cl)-Cys-Trp-NH2
- % Inhibition of Binding MC1-R (MC1-R; 1 μM): 61%
- % Inhibition of Binding hMC4-R (MC4-R; 1 μM): 84%

Substance: D-(N-Bzl) Phe(2′-Cl)-Lys-Nal 2′-Cys-NH2
- % Inhibition of Binding MC1-R (MC1-R; 1 μM): 69%
- % Inhibition of Binding hMC4-R (MC4-R; 1 μM): 97%

Substance: Ac-[Nle]A[dF][dC]R-NH2
- % Inhibition of Binding MC1-R (MC1-R; 1 μM): 22%
- % Inhibition of Binding hMC4-R (MC4-R; 1 μM): 0%

Substance: 1-Naphthylacetyl-Arg-Arg-D-Phe(4′-Cl)-Cys-Nal 2′-NH2
- % Inhibition of Binding hMC4-R (MC4-R; 1 μM): 98%

Substance: D-Phe-Arg-Trp-Cys-Lys-NH2 ([dF]RWCK-NH2; also: metallopeptide)
- % Inhibition of Binding hMC4-R (MC4-R; 1 μM): 81%
